How the values were obtained:
[1] = biological target: T1, Stat3 (Mus musculus, UniProt P42227); details: Turkson et al., 2004b; cited from earlier work
T1 construct: Nuclear extract preparation from NIH3T3 stimulated by rhIL-6, NIH3T3/hEGFR stimulated by rhEGF; endogenous in cells; host or cells: NIH3T3/hEGFR fibroblasts stimulated with rhEGF (nuclear extract)

[2] = biological target: T2, E2F1 (Homo sapiens, UniProt Q01094); assay: In vitro E2F1 DNA-binding activity assay, EMSA with DHFR promoter probe; details: cell lysates pre-incubated with compound before DHFR promoter probe
T2 construct: made in house; host or cells: Sf-9 insect cells infected with baculovirus
T2 sequence (Q01094 whole entry, species assumed): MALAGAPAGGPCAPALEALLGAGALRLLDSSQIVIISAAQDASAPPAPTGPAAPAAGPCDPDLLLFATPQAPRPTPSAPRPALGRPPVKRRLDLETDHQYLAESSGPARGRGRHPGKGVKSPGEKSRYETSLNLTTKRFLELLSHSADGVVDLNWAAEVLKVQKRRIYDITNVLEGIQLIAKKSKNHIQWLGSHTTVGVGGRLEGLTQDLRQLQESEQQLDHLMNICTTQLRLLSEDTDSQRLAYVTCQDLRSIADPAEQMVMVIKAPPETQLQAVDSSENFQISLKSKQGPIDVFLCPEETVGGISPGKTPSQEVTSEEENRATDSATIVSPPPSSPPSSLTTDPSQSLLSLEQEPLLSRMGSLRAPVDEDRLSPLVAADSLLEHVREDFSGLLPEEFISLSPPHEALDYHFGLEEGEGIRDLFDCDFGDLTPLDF
Experimental: (§1) FIGS. 1A-1E. Inhibition of in vitro Stat3 DNA-binding activity by a platinum complex. Nuclear extracts or cell lysates containing activated Stat1, Stat3 and Stat5, or E2F1 prepared from NIH3T3/hEGFR that are stimulated with EGF or Sf-9 insect cells that are infected with baculovirus expressing Stat1, Stat3, Stat5, or E2F1, respectively, were treated with or without the indicated concentrations of platinum complex, PLATINUM-401 or Cisplatin, for 30 min at room temperature prior to incubation with radiolabeled oligonucleotide probes, and subjected to EMSA analysis. (FIG. 1A) (i) Stat1 and Stat3 binding activities to hSIE probe, (ii) Stat1 and Stat5 binding activities to MGFe probe, and (iii) plot of % oligonucleotide probe-STAT:STAT complexes versus concentration of PLATINUM-401. […] Positions of STAT: STAT-DNA complexes in gel are labeled. In (A) to (C), the control lanes represent DMSO (vehicle)-treatment.
In control studies, the effect of PLATINUM-401 was evaluated on the DNA-binding activity of the E2F1 protein that is unrelated to STATs.

[3] = biological target: T1, Stat3; assay: In vitro Stat3 DNA-binding activity assay, EMSA with hSIE probe; details: pre-incubated 30 min before hSIE probe
Experimental: as §1
(§2) Nuclear extract preparation and gel shift assays—Nuclear extract preparation from NIH3T3 stimulated by rhIL-6, NIH3T3/hEGFR stimulated by rhEGF, v-Src-transformed fibroblasts (NIH3T3/v-Src) or tumor cell lines and electrophoretic mobility shift assay were carried out as previously described (Turkson et al., 1998; Garcia et al., 1997; Yu et al., 1995). The ^32P-labeled oligonucleotide probes used are hSIE (high affinity sis-inducible element from the c-fos gene, m67 variant, 5′-[…]) (SEQ ID NO:1) that binds Stat1 and Stat3 (Garcia et al., 1997; Wagner et al., 1990) and MGFe (mammary gland factor element from the bovine β-casein gene promoter, 5′-AGATTTCTAGGAATTCAA) (SEQ ID NO:2) for Stat1 and Stat5 binding (49,50). Except where indicated, inhibitor compound was pre-incubated with the nuclear extract for 30 min at room temperature prior to incubation with radiolabeled probe.
Compounds from the NCI 2000 diversity set were screened for inhibition of Stat3 signaling in an in vitro DNA-binding activity assay based on analysis by electrophoretic mobility shift assay (EMSA). A platinum (IV) complex, PLATINUM-401 (NSC 295558) (FIG. 1E), was identified as a potent inhibitor of Stat3 and was further characterized for its anti-Stat3 properties. In the in vitro DNA-binding activity assay, nuclear extracts of equal total protein containing active Stat1, Stat3 and Stat5 were pre-incubated with different concentrations of PLATINUM-401 for 30 min prior to incubation with a [^32P]-labeled oligonucleotide, the m67 high affinity sis-inducible element (hSIE) probe that binds Stat1 and Stat3, or the mammary gland factor element (MGFe) that binds Stat1 and Stat5. Samples were then subjected to EMSA.

[4] = test system: Stat5; assay: In vitro Stat5 DNA-binding activity assay, EMSA with MGFe probe; parameters: species or system mouse; details: pre-incubated 30 min before MGFe probe
Experimental: as §1
Nuclear extract preparation and gel shift assays—Nuclear extract preparation from NIH3T3 stimulated by rhIL-6, NIH3T3/hEGFR stimulated by rhEGF, v-Src-transformed fibroblasts (NIH3T3/v-Src) or tumor cell lines and electrophoretic mobility shift assay were carried out as previously described (Turkson et al., 1998; Garcia et al., 1997; Yu et al., 1995). […]

[5] = biological target: T3, Stat1 (Mus musculus, UniProt P42225); assay: In vitro Stat1 DNA-binding activity assay, EMSA with hSIE or MGFe probe; details: pre-incubated 30 min before probe
T3 construct: Nuclear extract preparation from NIH3T3 stimulated by rhIL-6, NIH3T3/hEGFR stimulated by rhEGF; endogenous in cells; host or cells: NIH3T3/hEGFR fibroblasts stimulated with rhEGF (nuclear extract)
T3 sequence (P42225 2-749 limits assumed): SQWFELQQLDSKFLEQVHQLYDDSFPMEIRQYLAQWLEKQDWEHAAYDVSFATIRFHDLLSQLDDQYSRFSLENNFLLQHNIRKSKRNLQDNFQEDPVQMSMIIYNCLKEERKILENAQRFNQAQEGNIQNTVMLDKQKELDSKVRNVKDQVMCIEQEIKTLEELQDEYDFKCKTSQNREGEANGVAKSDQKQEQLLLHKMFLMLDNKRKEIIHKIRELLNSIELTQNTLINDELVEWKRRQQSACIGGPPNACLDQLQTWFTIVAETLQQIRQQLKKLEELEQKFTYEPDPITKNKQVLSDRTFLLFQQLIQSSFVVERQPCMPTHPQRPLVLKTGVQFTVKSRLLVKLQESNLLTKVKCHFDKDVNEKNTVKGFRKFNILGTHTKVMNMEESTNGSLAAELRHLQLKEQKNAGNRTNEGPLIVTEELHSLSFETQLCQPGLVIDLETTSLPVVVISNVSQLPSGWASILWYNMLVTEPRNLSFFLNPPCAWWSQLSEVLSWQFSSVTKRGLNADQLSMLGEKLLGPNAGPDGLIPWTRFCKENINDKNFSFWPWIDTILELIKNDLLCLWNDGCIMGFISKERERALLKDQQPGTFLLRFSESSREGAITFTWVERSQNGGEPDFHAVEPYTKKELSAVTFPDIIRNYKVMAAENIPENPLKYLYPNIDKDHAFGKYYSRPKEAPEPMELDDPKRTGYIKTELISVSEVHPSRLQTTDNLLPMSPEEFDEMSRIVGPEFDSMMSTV
Experimental: as §1, §2
Compounds from the NCI 2000 diversity set were screened for inhibition of Stat3 signaling in an in vitro DNA-binding activity assay based on analysis by electrophoretic mobility shift assay (EMSA). […]

T1 sequence (P42227 2-770 limits assumed): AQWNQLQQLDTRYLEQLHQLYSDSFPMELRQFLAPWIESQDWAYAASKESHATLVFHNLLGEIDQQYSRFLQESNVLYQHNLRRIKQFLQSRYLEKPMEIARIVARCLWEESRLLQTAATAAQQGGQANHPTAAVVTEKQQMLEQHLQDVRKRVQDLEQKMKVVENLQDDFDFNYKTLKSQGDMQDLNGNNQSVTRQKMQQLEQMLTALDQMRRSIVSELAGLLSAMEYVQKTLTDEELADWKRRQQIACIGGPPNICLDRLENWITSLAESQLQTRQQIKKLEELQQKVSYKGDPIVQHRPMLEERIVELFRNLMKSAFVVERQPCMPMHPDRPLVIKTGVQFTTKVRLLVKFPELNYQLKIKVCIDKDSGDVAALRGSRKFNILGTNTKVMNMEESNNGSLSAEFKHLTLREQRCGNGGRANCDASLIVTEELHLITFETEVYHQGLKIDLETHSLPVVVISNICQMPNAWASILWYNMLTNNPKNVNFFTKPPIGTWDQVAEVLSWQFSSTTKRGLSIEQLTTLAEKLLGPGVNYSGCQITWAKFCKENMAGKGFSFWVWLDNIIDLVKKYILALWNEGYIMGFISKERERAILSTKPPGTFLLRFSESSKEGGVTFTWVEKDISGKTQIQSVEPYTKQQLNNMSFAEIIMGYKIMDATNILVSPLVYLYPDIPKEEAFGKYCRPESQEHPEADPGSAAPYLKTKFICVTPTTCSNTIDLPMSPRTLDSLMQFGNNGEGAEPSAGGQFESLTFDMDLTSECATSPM

## N.N.[Cl][Pt][Cl] [Cisplatin, reference compound]
[1]
  effect on Stat3 activity: no effect
[2]
  effect on E2F1 DNA-binding activity: no detectable effect
[3]
  effect on DNA-binding activity of Stat3:Stat3 homodimer: no detectable effect
[4]
  effect on DNA-binding activity of Stat5:Stat5 dimer: no detectable effect
[5]
  effect on DNA-binding activity of Stat1:Stat1 homodimer: no detectable effect

Reference: patent US11571418B2, “Platinum compounds that inhibit constitutive STAT3 signaling and induce cell cycle arrest and apoptosis of malignant cells” (H. LEE MOFFITT CANCER CENTER AND RESEARCH INSTITUTE, INC., priority 2011, dated 2023)
